# Reference: ChEMBL document CHEMBL5518215, “Unlocking Antibacterial Potential: Key-Site-Based Regulation of Antibacterial Spectrum of Peptides” (J Med Chem, 2024)
# Columns and labels:
# [1] = tested on: Staphylococcus aureus; experiment: Antimicrobial activity against Staphylococcus aureus 29213 assessed as absence bacterial growth measured after 18 to 24 hrs incubation by NCCLS method; type: functional; conditions: time 18-24 hrs
# [2] = tested on: Staphylococcus epidermidis; experiment: Antimicrobial activity against Staphylococcus epidermidis 12228 assessed as absence bacterial growth measured after 18 to 24 hrs incubation by NCCLS method; type: functional; conditions: time 18-24 hrs
# [3] = tested on: Staphylococcus aureus; experiment: Antimicrobial activity against Staphylococcus aureus 29213 assessed as bacterial killing measured after 16 hrs incubation; type: functional
# [4] = tested on: Pseudomonas aeruginosa; experiment: Antimicrobial activity against Pseudomonas aeruginosa 27853 assessed as bacterial killing measured after 16 hrs incubation; type: functional
# [5] = tested on: Staphylococcus epidermidis; experiment: Antimicrobial activity against Staphylococcus epidermidis 12228 assessed as bacterial killing measured after 16 hrs incubation; type: functional
# [6] = tested on: Escherichia coli; experiment: Antimicrobial activity against Escherichia coli K88 assessed as bacterial killing measured after 16 hrs incubation; type: functional
# [7] = Cytotoxicity against porcine IPEC-J2 cells assessed as cell survival rate measured after 8 hrs by MTT assay; type: toxicity, cell-based, Sus scrofa; conditions: pig
# [8] = tested on: Escherichia coli; experiment: Antimicrobial activity against Escherichia coli 25922 assessed as absence bacterial growth measured after 18 to 24 hrs incubation in presence of NH4Cl by NCCLS method; type: functional; conditions: time 18-24 hrs
# [9] = tested on: Salmonella typhimurium; experiment: Antimicrobial activity against Salmonella typhimurium 14028 assessed as bacterial killing measured after 16 hrs incubation; type: functional, Salmonella enterica subsp. enterica serovar Typhimurium; conditions: Salmonella enterica
# [10] = tested on: Enterococcus faecalis; experiment: Antimicrobial activity against Enterococcus faecalis 29212 assessed as bacterial killing measured after 16 hrs incubation; type: functional
# [11] = tested on: Bacillus cereus; experiment: Antimicrobial activity against Bacillus cereus 1.932 assessed as bacterial killing measured after 16 hrs incubation; type: functional
# [12] = tested on: Pseudomonas aeruginosa; experiment: Antimicrobial activity against Pseudomonas aeruginosa 27853 assessed as absence bacterial growth measured after 18 to 24 hrs incubation by NCCLS method; type: functional; conditions: time 18-24 hrs
# [13] = Cytotoxicity against porcine IPEC-J2 cells assessed as cell survival rate at 64 uM measured after 8 hrs by MTT assay relative to control; type: toxicity, cell-based, Sus scrofa; conditions: pig, read-out: Activity
# [14] = tested on: Escherichia coli; experiment: Antimicrobial activity against Escherichia coli K88 assessed as absence bacterial growth measured after 18 to 24 hrs incubation by NCCLS method; type: functional; conditions: time 18-24 hrs
# [15] = tested on: Acinetobacter baumannii; experiment: Antimicrobial activity against Acinetobacter baumannii 1.6769 assessed as absence bacterial growth measured after 18 to 24 hrs incubation by NCCLS method; type: functional; conditions: time 18-24 hrs
# [16] = tested on: Escherichia coli; experiment: Antimicrobial activity against Escherichia coli 25922 assessed as absence bacterial growth measured after 18 to 24 hrs incubation in presence of MgCl2 by NCCLS method; type: functional; conditions: time 18-24 hrs
# [17] = Cytotoxicity against mouse RAW264.7 cells assessed as cell survival rate measured after 8 hrs by MTT assay; type: toxicity, cell-based
# [18] = tested on: Listeria monocytogenes; experiment: Antimicrobial activity against Listeria monocytogenes 1.10753 assessed as bacterial killing measured after 16 hrs incubation; type: functional
# [19] = tested on: Erythrocyte; experiment: Hemolytic activity in human RBC at effective concentration measured after 1 hr by microplate reader analysis; type: toxicity, cell-based
# [20] = Hemolytic activity in human RBC at effective concentration at 128 uM measured after 1 hr by microplate reader relative to control; type: toxicity, cell-based, Erythrocyte; conditions: human red blood cells (erythrocytes), read-out: Activity
# [21] = Cytotoxicity against human HEK-293T cells assessed as cell survival rate at 64 uM measured after 8 hrs by MTT assay relative to control; type: toxicity, cell-based; conditions: read-out: Activity
# [22] = tested on: Salmonella typhimurium; experiment: Antimicrobial activity against Salmonella typhimurium 14028 assessed as absence bacterial growth measured after 18 to 24 hrs incubation by NCCLS method; type: functional, Salmonella enterica subsp. enterica serovar Typhimurium; conditions: Salmonella enterica, time 18-24 hrs
# [23] = Cytotoxicity against human HEK-293T cells assessed as cell survival rate measured after 8 hrs by MTT assay; type: toxicity, cell-based
# [24] = tested on: Staphylococcus aureus; experiment: Antimicrobial activity against Staphylococcus aureus 25923 assessed as bacterial killing measured after 16 hrs incubation; type: functional
# [25] = tested on: Acinetobacter baumannii; experiment: Antimicrobial activity against Acinetobacter baumannii 1.6769 assessed as bacterial killing measured after 16 hrs incubation; type: functional
# [26] = tested on: Staphylococcus aureus; experiment: Antimicrobial activity against Staphylococcus aureus 29213 assessed as absence bacterial growth measured after 18 to 24 hrs incubation by NCCLS m; type: functional; conditions: time 18-24 hrs
# [27] = tested on: Escherichia coli; experiment: Antimicrobial activity against Escherichia coli 25922 assessed as absence bacterial growth measured after 18 to 24 hrs incubation in presence of KCl by NCCLS method; type: functional; conditions: time 18-24 hrs
# [28] = tested on: Enterococcus faecalis; experiment: Antimicrobial activity against Enterococcus faecalis 29212 assessed as absence bacterial growth measured after 18 to 24 hrs incubation by NCCLS method; type: functional; conditions: time 18-24 hrs
# [29] = tested on: Staphylococcus aureus; experiment: Antimicrobial activity against Methicillin-resistant Staphylococcus aureus 43300 assessed as bacterial killing measured after 16 hrs incubation; type: functional
# [30] = tested on: Escherichia coli; experiment: Antimicrobial activity against Escherichia coli 25922 assessed as bacterial killing measured after 16 hrs incubation; type: functional
# [31] = tested on: Escherichia coli; experiment: Antimicrobial activity against Escherichia coli 25922 assessed as absence bacterial growth measured after 18 to 24 hrs incubation in presence of NaCl by NCCLS method; type: functional; conditions: time 18-24 hrs
# [32] = tested on: Escherichia coli; experiment: Antimicrobial activity against Escherichia coli 25922 assessed as absence bacterial growth measured after 18 to 24 hrs incubation in presence of 25% serum by NCCLS method; type: functional; conditions: time 18-24 hrs
# [33] = tested on: Salmonella typhimurium; experiment: Antimicrobial activity against Salmonella typhimurium C7731 assessed as bacterial killing measured after 16 hrs incubation; type: functional, Salmonella enterica subsp. enterica serovar Typhimurium; conditions: Salmonella enterica
# [34] = tested on: Salmonella typhimurium; experiment: Antimicrobial activity against Salmonella typhimurium C7731 assessed as absence bacterial growth measured after 18 to 24 hrs incubation by NCCLS method; type: functional, Salmonella enterica subsp. enterica serovar Typhimurium; conditions: Salmonella enterica, time 18-24 hrs
# [35] = tested on: Escherichia coli; experiment: Antimicrobial activity against Escherichia coli 25922 assessed as absence bacterial growth measured after 18 to 24 hrs incubation in presence of 50% serum by NCCLS method; type: functional; conditions: time 18-24 hrs
# [36] = tested on: Escherichia coli; experiment: Antimicrobial activity against Escherichia coli 25922 assessed as absence bacterial growth measured after 18 to 24 hrs incubation in presence of ZnCl2 by NCCLS method; type: functional; conditions: time 18-24 hrs
# [37] = tested on: Bacillus cereus; experiment: Antimicrobial activity against Bacillus cereus 1.932 assessed as absence bacterial growth measured after 18 to 24 hrs incubation by NCCLS method; type: functional; conditions: time 18-24 hrs
# [38] = tested on: Listeria monocytogenes; experiment: Antimicrobial activity against Listeria monocytogenes 1.10753 assessed as absence bacterial growth measured after 18 to 24 hrs incubation by NCCLS method; type: functional; conditions: time 18-24 hrs
# [39] = tested on: Escherichia coli; experiment: Antimicrobial activity against Escherichia coli 25922 assessed as absence bacterial growth measured after 18 to 24 hrs incubation in presence of FeCl3 by NCCLS method; type: functional; conditions: time 18-24 hrs
# [40] = tested on: Escherichia coli; experiment: Antimicrobial activity against Escherichia coli 25922 assessed as absence bacterial growth measured after 18 to 24 hrs incubation by NCCLS method; type: functional; conditions: time 18-24 hrs
# [41] = tested on: Staphylococcus aureus; experiment: Antimicrobial activity against Methicillin-resistant Staphylococcus aureus 43300 assessed as absence bacterial growth measured after 18 to 24 hrs incubation by NCCLS method; type: functional; conditions: time 18-24 hrs
# [42] = Antimicrobial activity against Salmonella pullorum C7913 assessed as absence bacterial growth measured after 18 to 24 hrs incubation by NCCLS method; type: functional, Salmonella enterica subsp. enterica serovar Pullorum; conditions: Salmonella enterica, time 18-24 hrs
# [43] = Antimicrobial activity against Salmonella pullorum C7913 assessed as bacterial killing measured after 16 hrs incubation; type: functional, Salmonella enterica subsp. enterica serovar Pullorum; conditions: Salmonella enterica
# [44] = tested on: Escherichia coli; experiment: Antimicrobial activity against Escherichia coli 25922 assessed as absence bacterial growth measured after 18 to 24 hrs incubation in presence of 12.5% serum by NCCLS method; type: functional; conditions: time 18-24 hrs
substance,measurement,setting,value
H-GKLWLKGGKLWLKAGKLWLKG-NH2,MIC,[1],8 µM
same,MIC,[2],4 µM
same,MBC,[3],8 µM
same,MBC,[4],8 µM
same,MBC,[5],8 µM
same,MBC,[6],1 µM
same,IC50 at 8 h,[7],54.1 µM
same,MIC,[8],2 µM
same,MBC,[9],4 µM
same,MBC,[10],16 µM
same,MBC,[11],4 µM
same,MIC,[12],4 µM
same,"viability at 8 h, 64 µM",[13],> 80%
same,MIC,[14],1 µM
same,MIC,[15],2 µM
same,MIC,[16],8 µM
same,IC50 at 8 h,[17],> 64 µM
same,MBC,[18],> 32 µM
same,HC10,[19],> 128 µM
same,"hemolysis at 1 h, 128 µM",[20],< 10%
same,"viability at 8 h, 64 µM",[21],> 80%
same,MIC,[22],4 µM
same,IC50 at 8 h,[23],> 64 µM
same,MBC,[24],8 µM
same,MBC,[25],4 µM
same,MIC,[26],4 µM
same,MIC,[27],2 µM
same,MIC,[28],8 µM
same,MBC,[29],4 µM
same,MBC,[30],4 µM
same,MIC,[31],16 µM
same,MIC,[32],32 µM
same,MBC,[33],8 µM
same,MIC,[34],4 µM
same,MIC,[35],> 32 µM
same,MIC,[36],1 µM
same,MIC,[37],4 µM
same,MIC,[38],> 32 µM
same,MIC,[39],2 µM
same,MIC,[40],2 µM
same,MIC,[41],4 µM
same,MIC,[42],2 µM
same,MBC,[43],2 µM
same,MIC,[44],16 µM
H-GKLWLKGGKLWLKGGKLWLKA-NH2,MIC,[1],16 µM
same,MIC,[2],8 µM
same,MBC,[3],32 µM
same,MBC,[4],4 µM
same,MBC,[5],8 µM
same,MBC,[6],0.5 µM
same,IC50 at 8 h,[7],> 64 µM
same,MIC,[8],2 µM
same,MBC,[9],8 µM
same,MBC,[10],16 µM
same,MBC,[11],> 32 µM
same,MIC,[12],4 µM
same,"viability at 8 h, 64 µM",[13],> 80%
same,MIC,[14],0.5 µM
same,MIC,[15],4 µM
same,MIC,[16],8 µM
same,IC50 at 8 h,[17],> 64 µM
same,MBC,[18],> 32 µM
same,HC10,[19],> 128 µM
same,"hemolysis at 1 h, 128 µM",[20],< 10%
same,"viability at 8 h, 64 µM",[21],> 80%
same,MIC,[22],2 µM
same,IC50 at 8 h,[23],> 64 µM
same,MBC,[24],> 32 µM
same,MBC,[25],4 µM
same,MIC,[26],> 32 µM
same,MIC,[27],2 µM
same,MIC,[28],16 µM
same,MBC,[29],8 µM
same,MBC,[30],4 µM
same,MIC,[31],32 µM
same,MIC,[32],> 32 µM
same,MBC,[33],8 µM
same,MIC,[34],4 µM
same,MIC,[35],> 32 µM
same,MIC,[36],2 µM
same,MIC,[37],> 32 µM
same,MIC,[38],> 32 µM
same,MIC,[39],2 µM
same,MIC,[40],2 µM
same,MIC,[41],8 µM
same,MIC,[42],2 µM
same,MBC,[43],4 µM
same,MIC,[44],32 µM
H-GKLWLKGGKLWLKGGKLWLKG-NH2,MIC,[1],> 32 µM
same,MIC,[2],> 32 µM
same,MBC,[3],> 32 µM
same,MBC,[4],16 µM
same,MBC,[5],> 32 µM
same,MBC,[6],2 µM
same,IC50 at 8 h,[7],> 64 µM
same,MIC,[8],4 µM
same,MBC,[9],4 µM
same,MBC,[10],> 32 µM
same,MBC,[11],> 32 µM
same,MIC,[12],8 µM
same,"viability at 8 h, 64 µM",[13],> 80%
same,MIC,[14],1 µM
same,MIC,[15],8 µM
same,MIC,[16],16 µM
same,IC50 at 8 h,[17],> 64 µM
same,MBC,[18],> 32 µM
same,HC10,[19],> 128 µM
same,"hemolysis at 1 h, 128 µM",[20],< 10%
same,"viability at 8 h, 64 µM",[21],> 80%
same,MIC,[22],2 µM
same,IC50 at 8 h,[23],> 64 µM
same,MBC,[24],> 32 µM
same,MBC,[25],8 µM
same,MIC,[26],> 32 µM
same,MIC,[27],4 µM
same,MIC,[28],> 32 µM
same,MBC,[29],> 32 µM
same,MBC,[30],8 µM
same,MIC,[31],> 32 µM
same,MIC,[32],> 32 µM
same,MBC,[33],8 µM
same,MIC,[34],4 µM
same,MIC,[35],> 32 µM
same,MIC,[36],4 µM
same,MIC,[37],> 32 µM
same,MIC,[38],> 32 µM
same,MIC,[39],4 µM
same,MIC,[40],4 µM
same,MIC,[41],> 32 µM
same,MIC,[42],1 µM
same,MBC,[43],2 µM
same,MIC,[44],> 32 µM
